In US6344562B1, “Thiazole derivatives” (Hoffmann-La Roche Inc., priority 1998, dated 2002):
Structures can show the parent of a compound that is named as a salt.

Work on O=C(O)CCCCCNC(=O)c1csc(NC(=O)NCc2ccccc2)n1 [Example 138, 6-{[2-(3-benzyl-ureido)-thiazole-4-carbonyl]-amino}-hexanoic acid] yielded a melting point of 178 °C.
In the case of N=C(N)Nc1nc(C(=O)NCC(=O)NC(CC(=O)O)c2cccnc2)cs1 (racemic) [Example 81, (RS)-3-{2-[(2-guanidino-thiazole-4-carbonyl)-amino]-acetylamino}-3-pyridin-3-yl-propionic acid], the melting point is reported as 186 °C.
For CCOC(=O)CC(CCCCNC(=O)c1sc(NC(=N)N)nc1C)c1ccccc1 (racemic) [Example 84, ethyl (RS)-7-[(2-guanidino-4-methyl-thiazole-5-carbonyl)-amino]-3-phenyl-heptanoate], the melting point was 138 °C.
For CCc1nc(NC(=N)N)sc1-c1cccc(NC(=O)CC(CC(=O)O)c2ccccc2)c1 (racemic) (as salt: salt) [Example 91, rac-4-[3-(4-ethyl-2-guanidino-thiazol-5-yl)-phenylcarbamoyl]-3-phenyl-butyric acid], the melting point was 186 to 188 °C.
CC(C)(C)OC(=O)C[C@H](NC(=O)CNC(=O)c1csc(NC(=O)NCc2ccccn2)n1)C(=O)NCc1ccccn1 [Example 167, tert-butyl (S)-N-pyridin-2-ylmethyl-3-(2-{[2-(3-pyridin-2-ylmethyl-ureido)-thiazole-4-carbonyl]-amino}-acetylamino)-succinamate] gave a melting point of 112 °C.
Molecule N=C(N)Nc1nc(C(=O)NCC(=O)NC(CC(=O)O)c2ccccc2)cs1 (racemic) (as salt: hydrochloride) [Example 23, rac-3-[2-[(2-guanidino-thiazole-4-carbonyl)-amino]-acetylamino]-3-phenyl-propionic acid] has a melting point of 202 to 205 °C.
CCOC(=O)CC(NC(=O)c1cc(NC(=O)c2sc(NC(=N)N)nc2C)cc(OCc2ccccc2)c1)c1ccccc1 (racemic) [Example 74, ethyl (RS)-3-{3-benzyloxy-5-[(2-guanidino-4-methyl-thiazole-5-carbonyl)-amino]-benzoylamino}-3-phenyl-propionate] showed a melting point of 116 °C.
With Cc1nc(NC(=N)N)sc1C(=O)NCCCCC(CC(=O)O)c1ccccc1 (racemic) [Example 85, (RS)-7-[(2-guanidino-4-methyl-thiazole-5-carbonyl)-amino]-3-phenyl-heptanoic acid] the melting point was 125 °C.
CC(C)(C)OC(=O)C[C@H](NC(=O)CNC(=O)c1csc(NC(=O)NCc2ccccc2)n1)C(=O)NCc1ccccc1 [Example 129, tert-butyl (S)-N-benzyl-3-[2-[[2-(3-benzyl-ureido)-thiazole-4-carbonyl]-amino]-acetylamino]-succinamate] gave a melting point of 123 °C.
With COC(=O)[C@H](CCCCNC(=O)c1csc(NC(=O)NCc2ccccc2)n1)NC(=O)OC(C)(C)C [Example 145, methyl (S)-6-{[2-(3-benzyl-ureido)-thiazole-4-carbonyl]-amino}-2-tert-butoxycarbonylamino-hexanoate] the melting point was 166 °C.
Cc1nc(NC(=N)N)sc1C(=O)NCCC(=O)NCCC(=O)O.Cl.Cl gave a melting point of 170 °C.
CCOC(=O)CCNC(=O)CNC(=O)c1csc(NC(=O)NCc2ccccc2)n1 [Example 131, ethyl 3-[2-[[2-(3-benzyl-ureido)-thiazole-4-carbonyl]-amino]-acetylamino]-propionate] showed a melting point of 187 °C.
For CCOC(=O)CC(NC(=O)CNC(=O)c1csc(NC(=N)N)n1)c1ccccc1 (racemic) [Example 22, ethyl rac-3-[2-[(2-guanidino-thiazole-4-carbonyl)-amino]-acetylamino]-3-phenyl-propionate], the melting point was 177 to 178 °C (dec.).
CC(C)[C@H](NC(=O)[C@H](CC(=O)O)NC(=O)CNC(=O)c1csc(NC(=O)NCc2ccccc2)n1)C(=O)O (as salt: trifluoroacetate) [Example 142, (S)-2-[(S)-2-(2-{[2-(3-benzyl-ureido)-thiazole-4-carbonyl]-amino}-acetylamino)-3-carboxy-propionylamino]-3-methyl-butyric acid] showed a melting point of 93 to 98 °C.
CC(C)(C)OC(=O)C[C@H](NC(=O)CNC(=O)c1csc(NC(=O)NCc2ccccc2)n1)C(=O)NCc1ccccn1 [Example 161, tert-butyl (S)-3-[2-[[2-(3-benzyl-ureido)-thiazole-4-carbonyl]-amino]-acetylamino]-N-pyridin-2-ylmethyl-succinamate] showed a melting point of 108 °C.
O=C(O)CCNC(=O)c1cccc(NC(=O)c2csc(NC(=O)NCc3ccccc3)n2)c1 [Example 170, 3-(3-{[2-(3-benzyl-ureido)-thiazole-4-carbonyl]-amino}-benzoylamino)-propionic acid] showed a melting point of 157 °C.
Work on CCOC(=O)CCCC(=O)CNC(=O)c1csc(NC(=O)NCc2ccccc2)n1 [Example 82, ethyl 6-{[2-(3-benzyl-ureido)-thiazole-4-carbonyl]-amino}-5-oxo-hexanoate] yielded a melting point of 135 to 136 °C.
O=C(O)C[C@H](NC(=O)CNC(=O)c1csc(NC(=O)NCc2ccccn2)n1)C(=O)NCc1ccccn1 [Example 168, (S)-N-pyridin-2-ylmethyl-3-(2-{[2-(3-pyridin-2-ylmethyl-ureido)-thiazole-4-carbonyl]-amino}-acetylamino)-succinamic acid] showed a melting point of 164 °C.
CC(C)(C)OC(=O)N[C@H](Cc1ccc(NC(=O)c2csc(NC(=O)NCc3ccccc3)n2)cc1)C(=O)O [Example 166, (R)-3-[4-[[2-(3-benzyl-ureido)-thiazole-4-carbonyl]-amino]-phenyl]-2-tert-butoxycarbonylamino-propionic acid] showed a melting point of 232 °C.
O=C(O)C[C@H](NC(=O)CNC(=O)c1csc(NC(=O)NCc2ccccc2)n1)C(=O)NCc1cccnc1 (as salt: trifluoroacetate) [Example 164, (S)-3-[2-[[2-(3-benzyl-ureido)-thiazole-4-carbonyl]-amino]-acetylamino]-N-pyridin-3-ylmethyl-succinamic acid] showed a melting point of 135 °C.
In the case of O=C(O)CCCC(=O)CNC(=O)c1csc(NC(=O)NCc2ccccn2)n1 (as salt: hydrochloride) [Example 150, 5-oxo-6-{[2-(3-pyridin-2-ylmethyl-ureido)-thiazole-4-carbonyl]-amino}-hexanoic acid], the melting point is reported as 199 °C.
CCOC(=O)CC(CCCCNC(=O)c1sc(N=C2NCCCN2)nc1C)c1ccccc1 (racemic) [Example 173, ethyl rac-7-[[4-methyl-2-(tetrahydro-pyrimidin-2-ylideneamino)-thiazole-5-carbonyl]-amino]-3-phenyl-heptanoate] gave a melting point of 137 to 139 °C.
For CCOC(=O)CC(CCCNC(=O)c1csc(NC(=O)NCc2ccccc2)n1)C(=O)NCc1ccccc1 (racemic) [Example 147, ethyl rac-3-benzylcarbamoyl-6-{[2-(3-benzyl-ureido)-thiazole-4-carbonyl]-amino}-hexanoate], the melting point was 128 °C.
Molecule CC(C)(C)OC(=O)CCNC(=O)c1cccc(NC(=O)c2csc(NC(=O)NCc3ccccc3)n2)c1 [Example 169, tert-butyl 3-(3-{[2-(3-benzyl-ureido)-thiazole-4-carbonyl]-amino}-benzoylamino)-propionate] has a melting point of 212 °C.
Work on CCOC(=O)CC(CC(=O)CNC(=O)c1csc(NC(=O)NCc2ccccc2)n1)C(=O)OCC (racemic) (as salt: succinate) [Example 155, diethyl rac-2-[3-[[2-(3-benzyl-ureido)-thiazole-4-carbonyl]-amino]-2-oxo-propyl]-succinate] yielded a melting point of 126 to 129 °C.
Work on CCOC(=O)CC(NC(=O)CCNC(=O)c1sc(NC(=N)N)nc1C)c1ccccc1 (racemic) [Example 26, ethyl rac-3-[3-[(2-guanidino-4-methyl-thiazole-5-carbonyl)-amino]-propionylamino]-3-phenyl-propionate] yielded a melting point of 106 to 107 °C.
For Cl.Cl.O=C(O)CC(NC(=O)CNC(=O)c1csc(N=C2NCCN2)n1)c1cccnc1 (stereo not drawn), the melting point was 170 to 172 °C.
With CC(C)(C)OC(=O)C[C@H](NC(=O)CNC(=O)c1csc(NC(=O)NCc2ccccc2)n1)C(=O)Nc1ccccc1C(=O)OC(C)(C)C [Example 135, tert-butyl (S)-2-[2-[2-[[2-(3-benzyl-ureido)-thiazole-4-carbonyl]-amino]-acetylamino]-3-tert-butoxycarbonyl-propionylamino]-benzoate] the melting point was 116 °C.
Molecule CCOC(=O)CC(CCCNC(=O)c1csc(NC(=O)NCc2ccccc2)n1)c1ccccc1 (racemic) [Example 14, ethyl (RS)-6-{[2-(3-benzyl-ureido)-thiazole-4-carbonyl]-amino}-3-phenyl-hexanoate] has a melting point of 93 °C.
Work on O=C(O)C(F)(F)F.O=C(O)C[C@H](NC(=O)CCCc1csc(NC(=O)NCc2ccccc2)n1)C(=O)NCc1ccccc1 yielded a melting point of 159 °C.
Molecule CC(C)(C)OC(=O)C[C@H](NC(=O)CNC(=O)c1csc(NC(=O)NCc2ccccc2)n1)C(=O)OC(C)(C)C (as salt: succinate) [Example 157, di-tert-butyl (S)-2-(2-{[2-(3-benzyl-ureido)-thiazole-4-carbonyl]-amino}-acetylamino)-succinate] has a melting point of 111 to 114 °C.
Work on CCOC(=O)CC(NC(=O)c1cccc(NC(=O)c2cnc(NC(=N)N)s2)c1)c1ccccc1 (racemic) [Example 72, ethyl (RS)-3-{3-[(2-guanidino-thiazole-5-carbonyl)-amino]-benzoylamino}-3-phenyl-propionate] yielded a melting point of 149 °C.
In the case of N=C(N)Nc1nc(C(=O)NCCCC(CC(=O)O)c2ccccc2)cs1 (racemic) [Example 17, (RS)-6-[(2-guanidino-thiazole-4-carbonyl)-amino]-3-phenyl-hexanoic acid], the melting point is reported as 230 °C.
